Key:
Test in all cases: relative viability (nuclei count vs DMSO), 5 days (fraction); higher = more cells survive
Sulindac + Trametinib = compound: CC1=C(CC(=O)O)c2cc(F)ccc2/C1=C\c1ccc([S+](C)[O-])cc1 [Sulindac] + CC(=O)Nc1cccc(-n2c(=O)n(C3CC3)c(=O)c3c(Nc4ccc(I)cc4F)n(C)c(=O)c(C)c32)c1 [Trametinib] (partner 0.02 µM)
Method in brief: (§1)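 For relative viability, nuclei counts in treated wells were divided by those in vehicle wells. Lung cancer cell lines had been pin-tool dosed in 1536-well plates the day after seeding and cultured for 5 days, then fixed and stained in one step (final 0.05% Triton X-100, 1% formaldehyde, 1 ug/ml Hoechst) and imaged at 4×. Doses were one drug alone or a fixed anchor-drug dose plus five library-drug doses (not always all listed) in √10 steps, and values are duplicate-plate medians.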

Sulindac + Pemetrexed = compound: CC1=C(CC(=O)O)c2cc(F)ccc2/C1=C\c1ccc([S+](C)[O-])cc1 [Sulindac] + Nc1nc2[nH]cc(CCc3ccc(C(=O)N[C@@H](CCC(=O)O)C(=O)O)cc3)c2c(=O)[nH]1 [Pemetrexed] (partner 0.2 µM)
Method in brief: as §1

[1] = compound: O=c1[nH]cc(F)c(=O)[nH]1 [5-Fluorouracil] + Cc1nc(NC(=O)N2CCC[C@H]2C(N)=O)sc1-c1ccnc(C(C)(C)C(F)(F)F)c1 [Alpelisib] (partner 2 µM)
Method in brief: as §1

[2] = compound: O=c1[nH]cc(F)c(=O)[nH]1 [5-Fluorouracil] + Nc1ncn([C@H]2C[C@H](O)[C@@H](CO)O2)c(=O)n1 [Decitabine] (partner 2 µM)
Method in brief: as §1

Row | Cell Line | relative viability (Sulindac + Trametinib; first compound 0.08 µM) | relative viability (Sulindac + Trametinib; first compound 0.253 µM) | relative viability (Sulindac + Trametinib; first compound 0.8 µM) | relative viability (Sulindac + Trametinib; first compound 2.53 µM) | relative viability (Sulindac + Trametinib; first compound 8 µM) | relative viability (Sulindac + Pemetrexed; first compound 0.08 µM) | relative viability (Sulindac + Pemetrexed; first compound 0.253 µM) | relative viability (Sulindac + Pemetrexed; first compound 0.8 µM) | relative viability (Sulindac + Pemetrexed; first compound 2.53 µM) | relative viability (Sulindac + Pemetrexed; first compound 8 µM) | relative viability ([1]; first compound 0.02 µM) | relative viability ([1]; first compound 0.2 µM) | relative viability ([1]; first compound 0.6325 µM) | relative viability ([1]; first compound 2 µM) | relative viability ([2]; first compound 0.02 µM) | relative viability ([2]; first compound 0.2 µM) | relative viability ([2]; first compound 0.6325 µM) | relative viability ([2]; first compound 2 µM)
1 | SK-MES-1 | 0.563 | 0.555 | 0.538 | 0.561 | 0.579 | 1.12 | 0.99 | 1.03 | 1.03 | 1.06 | 0.798 | 0.789 | 0.447 | 0.341 | 0.339 | 0.352 | 0.323 | 0.294
2 | NCI-H1793 | 0.352 | 0.497 |  | 0.497 | 0.481 | 0.957 | 0.824 |  | 1.13 | 1.14 | 0.673 | 0.658 | 0.543 | 0.493 | 0.617 | 0.469 | 0.487 | 0.557
3 | NCI-H3122 | 0.222 | 0.243 | 0.203 | 0.214 | 0.267 | 0.203 | 0.194 | 0.207 | 0.176 | 0.214 | 0.796 | 0.653 | 0.371 | 0.246 | 0.432 | 0.447 | 0.304 | 0.214
4 | LCLC-103H | 0.715 | 0.722 | 0.692 | 0.67 | 0.694 | 0.458 | 0.45 | 0.505 | 0.44 | 0.491 | 0.984 | 0.983 | 0.699 | 0.403 | 0.734 | 0.636 | 0.652 | 0.524
5 | NCI-H596 | 0.892 | 0.827 |  | 0.981 | 0.875 | 0.441 | 0.433 |  | 0.445 | 0.544 | 0.357 | 0.449 | 0.497 | 0.381 | 1.15 | 0.999 | 0.902 | 0.706
6 | NCI-H1792 | 0.425 | 0.393 |  | 0.512 | 0.513 | 0.867 | 0.903 |  | 0.794 | 0.827 | 0.691 | 0.606 | 0.168 | 0.116 | 0.514 | 0.473 | 0.27 | 0.202
7 | NCI-H358 | 0.132 | 0.132 | 0.128 | 0.114 | 0.14 | 0.183 | 0.157 | 0.17 | 0.151 | 0.182 | 0.935 | 0.817 | 1.04 | 0.434 | 0.187 | 0.224 | 0.214 | 0.225
8 | NCI-H1755 | 0.886 | 0.751 | 0.775 | 0.812 | 0.89 | 0.421 | 0.448 | 0.631 | 0.444 | 0.462 | 0.896 | 0.74 | 0.294 | 0.259 | 0.747 | 0.616 | 0.433 | 0.394
9 | EPLC-272H | 0.195 |  | 0.266 | 0.245 | 0.279 | 0.274 | 0.326 | 0.465 | 0.278 | 0.347 | 0.91 | 0.834 | 0.429 | 0.371 | 0.357 | 0.305 | 0.224 | 0.22

From the supplement of paper PMC10307832
